Earlier results in US8025907B2, “Cosmetic composition to accelerate repair of functional wrinkles” (priority 2005, dated 2011).

Experiments:
[1] = system: forehead expression lines; conditions: 28 days

| Substance | wrinkle depth reduction by the hexapeptide component (wrinkles; after thirty days, after factoring the influence of the cosmetic base ingredient) | time before a visible reduction in wrinkles can occur (wrinkles; on average) | reduction of forehead expression lines [1] |
| --- | --- | --- | --- |
| acetyl hexapeptide-3 | less than 30% | up to 30 days |  |
| Dipeptide Diaminobutyroyl Benzalamide Diacetate |  |  | up to 52% |
